Experimental data as given in patent US11814392B2, “Chromenopyridine-based compounds and methods of making and use thereof” (Rosalind Franklin University of Medicine and Science, priority 2020, dated 2023).

What was measured:
[1] = system: UACC-62; assay: NCI 60 five-dose screening, UACC-62
Experimental: (§1) The National Cancer Institute's Developmental Therapeutic preclinical 60 human cancer cell lines were used for an in vitro screen. […] The one-dose and five-dose experiments were conducted according to standard NCI protocols.
(§2) The human tumor cell lines of the cancer screening panel are grown in RPMI 1640 medium containing 5% fetal bovine serum and 2 mM L-glutamine. For a typical screening experiment, cells are inoculated into 96 well microtiter plates in 100 μL at plating densities ranging from 5,000 to 40,000 cells/well depending on the doubling time of individual cell lines. After cell inoculation, the microtiter plates are incubated at 37° C., 5% CO2, 95% air and 100% relative humidity for 24 h prior to addition of experimental drugs.
(§3) After 24 h, two plates of each cell line are fixed in situ with TCA, to represent a measurement of the cell population for each cell line at the time of drug addition (Tz). […]
(§4) Following drug addition, the plates are incubated for an additional 48 h at 37° C., 5% CO2, 95% air, and 100% relative humidity. […] Bound stain is subsequently solubilized with 10 mM trizma base, and the absorbance is read on an automated plate reader at a wavelength of 515 nm. […] Using the seven absorbance measurements [time zero, (Tz), control growth, (C), and test growth in the presence of drug at the five concentration levels (Ti)], the percentage growth is calculated at each of the drug concentrations levels. Percentage growth inhibition is calculated as: [(Ti−Tz)/(C−Tz)]×100 for concentrations for which Ti>/=Tz [(Ti−Tz)/Tz]×100 for concentrations for which Ti<Tz.
(§5) Three dose response parameters are calculated for each experimental agent. […] The drug concentration resulting in total growth inhibition (TGI) is calculated from Ti=Tz. […] Values are calculated for each of these three parameters if the level of activity is reached; however, if the effect is not reached or is exceeded, the value for that parameter is expressed as greater or less than the maximum or minimum concentration tested.

[2] = system: MOLT-4; assay: NCI 60 five-dose screening, MOLT-4
Experimental: as §1, §2, §3, §4, §5

[3] = system: SK-OV-3; assay: NCI 60 five-dose screening, SK-OV-3
Experimental: (§6) The one-dose and five-dose experiments were conducted according to standard NCI protocols.
as §2
(§7) After 24 h, two plates of each cell line are fixed in situ with TCA, to represent a measurement of the cell population for each cell line at the time of drug addition (Tz). Experimental drugs are solubilized in dimethyl sulfoxide at 400-fold the desired final maximum test concentration and stored frozen prior to use. […]
as §4, §5

[4] = system: HOP-92; assay: NCI 60 five-dose screening, HOP-92
Experimental: as §6, §2, §7, §4, §5

[5] = system: SNB-75; assay: NCI 60 five-dose screening, SNB-75
Experimental: as §1, §2, §3, §4, §5

[6] = system: OVCAR-5; assay: NCI 60 five-dose screening, OVCAR-5
Experimental: as §1, §2, §3, §4, §5

[7] = system: SN12C; assay: NCI 60 five-dose screening, SN12C; assay type: cell-based, human; conditions: SN12C (Renal Cancer), 48 h
[8] = system: UO-31; assay: NCI 60 five-dose screening, UO-31
Experimental: as §1, §2, §3, §4, §5

[9] = system: BT-549; assay: NCI 60 five-dose screening, BT-549
Experimental: as §1, §2, §3, §4, §5

[10] = system: SF-539; assay: NCI 60 five-dose screening, SF-539
Experimental: as §1, §2, §3, §4, §5

[11] = system: 60 human cancer cell lines; assay: NCI 60 cell line assay, panel summary; assay type: cell-based; conditions: for GI50: Homo sapiens, 60 cell
[12] = system: SK-MEL-2; assay: NCI 60 five-dose screening, SK-MEL-2
Experimental: as §1, §2, §3, §4, §5

[13] = system: EKVX; assay: NCI 60 five-dose screening, EKVX; conditions: 48 h
Experimental: as §1, §2, §3, §4, §5

[14] = system: HCC-2998; assay: NCI 60 five-dose screening, HCC-2998
Experimental: as §1, §2, §3, §4, §5

[15] = system: HT29; assay: NCI 60 five-dose screening, HT29
Experimental: as §1, §2, §3, §4, §5

[16] = system: OVCAR-4; assay: NCI 60 five-dose screening, OVCAR-4
Experimental: as §1, §2, §3, §4, §5

[17] = system: RXF 393; assay: NCI 60 five-dose screening, RXF 393
Experimental: as §6, §2
After 24 h, two plates of each cell line are fixed in situ with TCA, to represent a measurement of the cell population for each cell line at the time of drug addition (Tz). Experimental drugs are solubilized in dimethyl sulfoxide at 400-fold the desired final maximum test concentration and stored frozen prior to use. At the time of drug addition, an aliquot of frozen concentrate is thawed and diluted to twice the desired final maximum test concentration with complete medium containing 50 μg/ml gentamicin. Additional four, 10-fold or ½ log serial dilutions are made to provide a total of five drug concentrations plus control. Aliquots of 100 μl of these different drug dilutions are added to the appropriate microtiter wells already containing 100 μl of medium, resulting in the required final drug concentrations.
Following drug addition, the plates are incubated for an additional 48 h at 37° C., 5% CO2, 95% air, and 100% relative humidity. For adherent cells, the assay is terminated by the addition of cold TCA. Cells are fixed in situ by the gentle addition of 50 μl of cold 50% (w/v) TCA (final concentration, 10% TCA) and incubated for 60 minutes at 4° C. […] Bound stain is subsequently solubilized with 10 mM trizma base, and the absorbance is read on an automated plate reader at a wavelength of 515 nm. […] Using the seven absorbance measurements [time zero, (Tz), control growth, (C), and test growth in the presence of drug at the five concentration levels (Ti)], the percentage growth is calculated at each of the drug concentrations levels. Percentage growth inhibition is calculated as: [(Ti−Tz)/(C−Tz)]×100 for concentrations for which Ti>/=Tz [(Ti−Tz)/Tz]×100 for concentrations for which Ti<Tz.
as §5

[18] = system: U251; assay: NCI 60 five-dose screening, U251
Experimental: as §1, §2, §3, §4, §5

[19] = system: NCI-H522; assay: NCI 60 five-dose screening, NCI-H522
Experimental: as §1, §2, §3, §4, §5

[20] = molecular target: T1, PMCT (Homo sapiens, UniProt Q86YT5); assay: PMCT inhibition, citrate transport assay of whole HEK293T cells; assay type: cell-based
T1 construct: expressed in transfected cells; host or cells: HEK293T cells transfected with pcDNA3.1(+)-SLC13A5 using PEI
T1 sequence (Q86YT5 whole entry): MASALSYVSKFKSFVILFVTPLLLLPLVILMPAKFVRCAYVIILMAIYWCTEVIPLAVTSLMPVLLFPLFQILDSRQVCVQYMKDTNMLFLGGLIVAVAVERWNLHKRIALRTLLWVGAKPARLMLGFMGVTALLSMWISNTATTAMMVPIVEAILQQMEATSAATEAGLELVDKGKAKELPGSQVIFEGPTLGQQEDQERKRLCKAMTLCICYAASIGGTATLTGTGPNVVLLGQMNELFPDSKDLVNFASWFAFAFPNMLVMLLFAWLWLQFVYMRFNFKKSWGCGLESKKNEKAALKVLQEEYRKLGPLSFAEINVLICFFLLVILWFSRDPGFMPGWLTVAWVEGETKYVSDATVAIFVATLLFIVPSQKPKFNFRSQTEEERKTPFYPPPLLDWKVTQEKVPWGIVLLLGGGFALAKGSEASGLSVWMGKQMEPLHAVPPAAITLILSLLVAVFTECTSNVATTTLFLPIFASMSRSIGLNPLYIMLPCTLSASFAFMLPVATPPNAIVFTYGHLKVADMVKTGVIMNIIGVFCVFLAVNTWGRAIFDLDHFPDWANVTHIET

[21] = system: NCI/ADR-RES; assay: NCI 60 five-dose screening, NCI/ADR-RES; assay type: cell-based, human; conditions: NCI/ADR-RES (Ovarian Cancer), 48 h
[22] = system: HCT-116; assay: NCI 60 five-dose screening, HCT-116
Experimental: as §1, §2, §3, §4, §5

[23] = system: MDA-MB-231/ATCC; assay: NCI 60 five-dose screening, MDA-MB-231/ATCC
Experimental: as §1, §2, §3, §4, §5

[24] = system: UACC-257; assay: NCI 60 five-dose screening, UACC-257
Experimental: as §1, §2, §3, §4, §5

[25] = RXF 393 (Renal Cancer), five-dose, 48 h

Work on `COc1ccc(SC2c3cc(OC)c(OC)cc3Oc3nc(N)c(C#N)c(N)c32)cc1` (stereo not drawn) [Compound 1, 2,4-diamino-7,8-dimethoxy-5-((4-methoxyphenyl)thio)-5H-chromeno[2,3-b]pyridine-3-carbonitrile] yielded a GI50 ([1]; Homo sapiens, UACC-62, 48 h) of 0.44 µM, a CC50 ([1]; Homo sapiens, UACC-62, 48 h, read-out: LC50) of 4.3 µM and a TGI ([1]; UACC-62 (Melanoma), five-dose, 48 h) of 1.73 µM. It also gave a GI50 ([2]; Homo sapiens, MOLT-4, 48 h) of 0.31 µM, a CC50 ([2]; Homo sapiens, MOLT-4, 48 h, read-out: LC50) greater than 100 µM and a TGI ([2]; MOLT-4 (Leukemia), five-dose, 48 h) of 1.60 µM. The GI50 ([3]; Homo sapiens, SK-OV-3, 48 h) was 1.81 µM, the CC50 ([3]; Homo sapiens, SK-OV-3, 48 h, read-out: LC50) was 5.66 µM and the TGI ([3]; SK-OV-3 (Ovarian Cancer), five-dose, 48 h) was 3.20 µM. It also gave a TGI ([4]; HOP-92 (Non-small cell Lung), five-dose, 48 h) of 2.72 µM, a GI50 ([4]; Homo sapiens, HOP-92, 48 h) of 1.24 µM and a CC50 ([4]; Homo sapiens, HOP-92, 48 h, read-out: LC50) of 5.99 µM. It also gave a GI50 ([5]; Homo sapiens, SNB-75, 48 h) of 1.31 µM, a CC50 ([5]; Homo sapiens, SNB-75, 48 h, read-out: LC50) of 5.24 µM and a TGI ([5]; SNB-75 (CNS Cancer), five-dose, 48 h) of 2.62 µM. It also gave a GI50 ([6]; Homo sapiens, OVCAR-5, 48 h) of 1.75 µM, a CC50 ([6]; Homo sapiens, OVCAR-5, 48 h, read-out: LC50) of 6.66 µM and a TGI ([6]; OVCAR-5 (Ovarian Cancer), five-dose, 48 h) of 3.39 µM. The GI50 ([7]; Homo sapiens) was 1.06 µM, the TGI [7] was 2.49 µM and the GI50 ([8]; Homo sapiens, UO-31, 48 h) was 1.34 µM. For the same molecule, the CC50 ([8]; Homo sapiens, UO-31, 48 h, read-out: LC50) was 5.11 µM, the TGI ([8]; UO-31 (Renal Cancer), five-dose, 48 h) was 2.61 µM and the TGI ([9]; BT-549 (Breast Cancer), five-dose, 48 h) was 2.19 µM. It also gave a GI50 ([9]; Homo sapiens, BT-549, 48 h) of 1.02 µM, a CC50 ([9]; Homo sapiens, BT-549, 48 h, read-out: LC50) of 4.72 µM and a GI50 ([10]; Homo sapiens, SF-539, 48 h) of 1.38 µM. It also gave a CC50 ([10]; Homo sapiens, SF-539, 48 h, read-out: LC50) of 5.2 µM, a TGI ([10]; SF-539 (CNS Cancer), five-dose, 48 h) of 2.68 µM and a GI50 ([11]; at least one studied cell line of each of leukemia, colon cancer, CNS cancer, melanoma, ovarian cancer, renal cancer, and breast cancer) of less than 1 µM. For the same molecule, the GI50 ([11]; every leukemia cell line studied) was less than 0.5 µM, the anti-proliferative activity ([11]; nine major cancer cell lines, initial single dose and five dose screening (FIG. 2, FIG. 3)) was “anti-proliferative activity” and the GI50 ([12]; Homo sapiens, SK-MEL-2, 48 h) was 1.37 µM. For the same molecule, the CC50 ([12]; Homo sapiens, SK-MEL-2, 48 h, read-out: LC50) was 5.76 µM, the TGI ([12]; SK-MEL-2 (Melanoma), five-dose, 48 h) was 2.80 µM and the TGI ([13]; EKVX (Non-small cell Lung), five-dose) was 3.34 µM. It also gave a GI50 ([13]; Homo sapiens, EKVX) of 1.74 µM, a CC50 ([13]; Homo sapiens, EKVX, read-out: LC50) of 6.42 µM and a TGI ([14]; HCC-2998 (Colon Cancer), five-dose, 48 h) of 3.12 µM. It also gave a GI50 ([14]; Homo sapiens, HCC 2998, 48 h) of 1.72 µM, a CC50 ([14]; Homo sapiens, HCC 2998, 48 h, read-out: LC50) of 5.67 µM and a TGI ([15]; HT29 (Colon Cancer), five-dose, 48 h) of 5.04 µM. It also gave a GI50 ([15]; Homo sapiens, HT-29, 48 h) of 2.16 µM, a CC50 ([15]; Homo sapiens, HT-29, 48 h, read-out: LC50) greater than 100 µM and a GI50 ([16]; Homo sapiens, OVCAR-4, 48 h) of 1.33 µM. The CC50 ([16]; Homo sapiens, OVCAR-4, 48 h, read-out: LC50) was 5.59 µM, the TGI ([16]; OVCAR-4 (Ovarian Cancer), five-dose, 48 h) was 2.73 µM and the GI50 ([17]; Homo sapiens, RXF 393, 48 h, RXF 393 (Renal Cancer), five-dose, 48 h) was 0.45 µM. The CC50 ([17]; Homo sapiens, RXF 393, 48 h, read-out: LC50) was 4.52 µM, the GI50 [17, 25] was 0.74 µM and the TGI [17, 25] was 2.01 µM. For the same molecule, the GI50 ([18]; Homo sapiens, U-251, 48 h) was 0.95 µM, the CC50 ([18]; Homo sapiens, U-251, 48 h, read-out: LC50) was 4.83 µM and the TGI ([18]; U251 (CNS Cancer), five-dose, 48 h) was 2.18 µM. The GI50 ([19]; Homo sapiens, NCI-H522, 48 h) was 1.37 µM, the CC50 ([19]; Homo sapiens, NCI-H522, 48 h, read-out: LC50) was 5.6 µM and the TGI ([19]; NCI-H522 (Non-small cell Lung), five-dose, 48 h) was 2.77 µM. For the same molecule, the IC50 ([20]; HEK293T cells) was 9.8 µM, the “dose-dependence of PMCT inhibition” value ([20]; HEK293T cells, even at moderate concentrations (FIG. 1)) was “dose-dependent inhibition” and the inhibition at 5 µM ([20]; HEK-293T, read-out: PMCT Inhibition, Inhibitor Concentration 5 μM, HEK293T cells) was 50.1%. It also gave an inhibition at 20 µM ([20]; HEK-293T, read-out: PMCT Inhibition, Inhibitor Concentration 20 μM, HEK293T cells) of 75.6%, an inhibition at 40 µM ([20]; HEK-293T, read-out: PMCT Inhibition, Inhibitor Concentration 40 μM, HEK293T cells) of 50.2% and an inhibition at 200 µM ([20]; HEK-293T, read-out: PMCT Inhibition, Inhibitor Concentration 200 μM, HEK293T cells) of 32.1%. For the same molecule, the inhibition at 1000 µM ([20]; HEK-293T, read-out: PMCT Inhibition, Inhibitor Concentration 1000 μM, HEK293T cells) was 62.8%, the GI50 ([21]; Homo sapiens) was 1.79 µM and the TGI [21] was 3.69 µM. It also gave a TGI ([22]; HCT-116 (Colon Cancer), five-dose, 48 h) of 2.16 µM, a GI50 ([22]; Homo sapiens, HCT-116, 48 h) of 0.68 µM and a CC50 ([22]; Homo sapiens, HCT-116, 48 h, read-out: LC50) of 5.34 µM. It also gave a GI50 ([23]; Homo sapiens, MDA-MB-231, 48 h) of 1.43 µM, a CC50 ([23]; Homo sapiens, MDA-MB-231, 48 h, read-out: LC50) of 5.51 µM and a TGI ([23]; MDA-MB-231/ATCC (Breast Cancer), five-dose, 48 h) of 2.81 µM. It also gave a GI50 ([24]; Homo sapiens, UACC-257, 48 h) of 1.87 µM, a CC50 ([24]; Homo sapiens, UACC-257, 48 h, read-out: LC50) of 5.9 µM and a TGI ([24]; UACC-257 (Melanoma), five-dose, 48 h) of 3.32 µM.
